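In this assay, cells in 96-well plates receive the compound at five concentrations for 48 hours. Endpoints are linearly interpolated between the surrounding concentrations. Abbreviation: GI50, concentration required for 50% inhibition of growth.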 Active and inactive are the calls of the source. No stated cut-off is given here; in the data, active = GI50 up to about 1.1 µM and inactive = higher.
Tests used:
Experiment in all cases: NCI-60 cell line screen, 48 h
XF498 = test system: XF498
DLD-1 = test system: DLD-1
DMS-114 = test system: DMS-114
SNB-78 = test system: SNB-78
DMS-273 = test system: DMS-273
KM-20L2 = test system: KM-20L2
RXF 631 = test system: RXF 631
HOP-18 = test system: HOP-18
M19-MEL = test system: M19-MEL

SMILES	GI50 (XF498)	GI50 (DLD-1)	GI50 (DMS-114)	GI50 (SNB-78)	GI50 (DMS-273)	GI50 (KM-20L2)	GI50 (RXF 631)	GI50 (HOP-18)	GI50 (M19-MEL)
N#Cc1cccc(N2C(=O)c3c(c(-c4ccccc4)c(-c4ccc(Sc5ccc(-c6c(-c7ccccc7)c7c(c(-c8ccccc8)c6-c6ccccc6)C(=O)N(c6cccc(C#N)c6)C7=O)cc5)cc4)c(-c4ccccc4)c3-c3ccccc3)C2=O)c1	30.5 µM (inactive)	> 100 µM (inactive)	89.5 µM (inactive)	35.1 µM (inactive)	> 100 µM (inactive)	> 100 µM (inactive)	> 100 µM (inactive)		
NC1=NC(Cn2nc(-c3ccccc3)c3ccccc3c2=O)=NNC(=O)N1		> 100 µM (inactive)		> 100 µM (inactive)	> 100 µM (inactive)			> 100 µM (inactive)	> 100 µM (inactive)
Cc1ccc(N2C[N+](c3ccccc3)=NC(c3ccccc3)=N2)cc1	43.8 µM (inactive)	54.6 µM (inactive)	24.4 µM (inactive)	> 10 µM (inactive)	30.3 µM (inactive)	56.9 µM (inactive)			28.9 µM (inactive)
c1csc(C[N+]23CN4CN(CN(C4)C2)C3)c1		33.7 µM (inactive)	20.6 µM (inactive)		18.9 µM (inactive)	26.5 µM (inactive)			25.9 µM (inactive)
COCC12CC(CC1=O)C1C2ON2c3ccccc3C(=O)C12c1ccccc1 (stereo unspecified)	> 100 µM (inactive)	> 100 µM (inactive)	> 100 µM (inactive)	68.7 µM (inactive)	> 100 µM (inactive)	> 100 µM (inactive)		> 100 µM (inactive)	
N/C(=N\N=C\c1c[nH]c2ccccc12)Nc1ccccc1		0.474 µM (active)	0.357 µM (active)	1.08 µM (active)	0.506 µM (active)	0.327 µM (active)		17.9 µM (inactive)	
Cc1c(Cl)cccc1NC(=O)C(=O)C1C(=O)NC(=O)NC1=O	> 100 µM (inactive)	> 100 µM (inactive)		> 100 µM (inactive)	> 100 µM (inactive)	> 100 µM (inactive)		> 100 µM (inactive)	> 100 µM (inactive)
COC(=O)CCC(=O)N1CC1C (stereo unspecified)	> 100 µM (inactive)	> 100 µM (inactive)	> 100 µM (inactive)		> 100 µM (inactive)	> 100 µM (inactive)		> 100 µM (inactive)	> 100 µM (inactive)
CCOc1ccc(NC(=O)C(=O)NO)cc1		> 100 µM (inactive)	> 100 µM (inactive)	> 100 µM (inactive)	> 100 µM (inactive)	> 100 µM (inactive)		> 100 µM (inactive)	> 100 µM (inactive)
COCCNC(=O)C1C(=O)N(CCOC)C(=O)/C1=N/N (stereo unspecified)	> 100 µM (inactive)	> 100 µM (inactive)		> 100 µM (inactive)	> 100 µM (inactive)	> 100 µM (inactive)			> 100 µM (inactive)
CSc1ccc(NC(=O)C2c3[nH]c4ccccc4c3C3CCC(C(C)(C)C)CC3C2C(=O)O)cc1 (stereo unspecified)	17.9 µM (inactive)	12.6 µM (inactive)	19.8 µM (inactive)	17.2 µM (inactive)	16.4 µM (inactive)	16.3 µM (inactive)		16.9 µM (inactive)	21.1 µM (inactive)
O=C1C[C@@H]2CCCC[C@@H]2C12SCCS2	58.1 µM (inactive)	> 100 µM (inactive)	89.1 µM (inactive)	> 100 µM (inactive)	> 100 µM (inactive)		> 100 µM (inactive)		> 100 µM (inactive)
NC(=O)n1ncc(Cl)c(Cl)c1=O	> 100 µM (inactive)	> 100 µM (inactive)	> 100 µM (inactive)	> 100 µM (inactive)	> 100 µM (inactive)	> 100 µM (inactive)	> 100 µM (inactive)	> 100 µM (inactive)	> 100 µM (inactive)
CC(C)=CCC/C(=C/CC/C(C)=C/CCc1ccoc1)C(=O)O	> 100 µM (inactive)	84.5 µM (inactive)	> 100 µM (inactive)	> 100 µM (inactive)		> 100 µM (inactive)			> 100 µM (inactive)
COc1ccc(/C=C2\CCC(C)(CN(C)C)C2=O)cc1Br (stereo unspecified)	18.8 µM (inactive)	17.3 µM (inactive)	24.4 µM (inactive)	38.1 µM (inactive)	18.2 µM (inactive)	1.26 µM (inactive)		28.8 µM (inactive)	17.3 µM (inactive)
CN1CCC(CN2c3ccccc3Sc3ccccc32)CC1	11.5 µM (inactive)	14.7 µM (inactive)	15.9 µM (inactive)	15.8 µM (inactive)	13.4 µM (inactive)	12.9 µM (inactive)		14.3 µM (inactive)	13.4 µM (inactive)
CC1(C)CC(=O)C(C(=O)C(=O)NC2=C(Cl)C(=O)c3ccccc3C2=O)C(=O)C1	> 100 µM (inactive)	> 100 µM (inactive)	67.9 µM (inactive)	> 100 µM (inactive)		> 100 µM (inactive)	82.4 µM (inactive)	> 100 µM (inactive)	61.5 µM (inactive)
Cc1nc(Nc2ccc([N+](=O)[O-])cc2)sc1C(=O)/C=C/c1ccc(N(C)C)cc1		60.5 µM (inactive)	59.4 µM (inactive)		77.3 µM (inactive)	73.1 µM (inactive)	> 100 µM (inactive)	> 100 µM (inactive)	> 100 µM (inactive)
COc1cccc2c1C(=O)C1(O)CCCCC21 (stereo unspecified)		> 100 µM (inactive)	> 100 µM (inactive)	> 100 µM (inactive)	> 100 µM (inactive)	> 100 µM (inactive)		> 100 µM (inactive)	> 100 µM (inactive)
CCSc1c2ccccc2c(-c2nc(F)nc(F)n2)n1CCc1ccccc1	> 100 µM (inactive)		> 100 µM (inactive)	> 100 µM (inactive)	> 100 µM (inactive)	> 100 µM (inactive)	> 100 µM (inactive)		> 100 µM (inactive)
CC(C)c1ccc2c(c1)CCC1C(C)(C)[C@@H](O)CC[C@]21C (stereo partly specified)		36.6 µM (inactive)	34.8 µM (inactive)	47.4 µM (inactive)	31.8 µM (inactive)	21.4 µM (inactive)			19.4 µM (inactive)
O=c1[nH]c(=O)n(C2OC(COP(=O)(O)OP(=O)(O)O)C(O)C2O)cc1F (stereo unspecified)	1.69 µM (inactive)	0.226 µM (active)	28.5 µM (inactive)	5.79 µM (inactive)	0.456 µM (active)	0.923 µM (active)		> 28 µM (inactive)	1.82 µM (inactive)
COC1C2C[C@@H](O)CCC2C(C(=O)OCCl)C[C@H]1O (stereo partly specified)		> 100 µM (inactive)	> 100 µM (inactive)	> 100 µM (inactive)	> 100 µM (inactive)	> 100 µM (inactive)	> 100 µM (inactive)	> 100 µM (inactive)	> 100 µM (inactive)
CCOC(=O)N1CCC(=O)C[C@@H]1C/C=C/P1(=O)O[C@H](c2ccccc2)C(C)N1C(C)C (stereo partly specified)			> 100 µM (inactive)	> 100 µM (inactive)	> 100 µM (inactive)	> 100 µM (inactive)			> 100 µM (inactive)

— ChEMBL document CHEMBL1201862, “PubChem BioAssay data set” (2004)
